# Source: patent US7939520B2, “Aminoazacyclyl-3-sulfonylindazoles as 5-hydroxytryptamine-6 ligands” (Wyeth LLC, priority 2007, dated 2011)
# Target: T1, human cloned 5-HT6 receptors (Homo sapiens, UniProt P50406)
# T1 construct: expressed in transfected cells; host or cells: HeLa cells
# Test: 5-HT6 binding affinity, [3H]-LSD displacement on membranes of Hela cells
# Settings: not given
# T1 sequence (P50406 whole entry): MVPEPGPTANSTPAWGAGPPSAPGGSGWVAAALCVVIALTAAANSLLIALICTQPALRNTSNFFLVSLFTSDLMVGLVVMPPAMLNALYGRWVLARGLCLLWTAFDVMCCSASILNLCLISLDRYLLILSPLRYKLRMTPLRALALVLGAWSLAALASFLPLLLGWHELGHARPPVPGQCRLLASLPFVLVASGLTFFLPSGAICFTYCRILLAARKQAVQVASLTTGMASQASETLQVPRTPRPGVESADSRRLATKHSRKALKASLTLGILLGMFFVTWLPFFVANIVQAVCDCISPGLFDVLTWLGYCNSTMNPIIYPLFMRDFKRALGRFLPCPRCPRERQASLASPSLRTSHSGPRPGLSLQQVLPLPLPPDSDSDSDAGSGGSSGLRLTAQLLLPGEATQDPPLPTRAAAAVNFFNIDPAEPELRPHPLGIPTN
row,Structure (SMILES),Ki [nM]
1,Cn1nc2ccc(N3CC[C@H](N)C3)cc2c1S(=O)(=O)c1cccc2ccccc12 [Example 18],54.3
2,CC(C)n1nc2ccc(N3CC[C@H](N)C3)cc2c1S(=O)(=O)c1cccc2ccccc12 [Example 19],48.7
3,CC(C)Cn1nc2ccc(N3CC[C@H](N)C3)cc2c1S(=O)(=O)c1cccc2ccccc12 [Example 20],75.8

# Same assay, conditions: [3H]-LSD 3.0 nM, Hela cell membranes, 120 min, room temperature; read-out: 5-HT6 Binding Ki
row,Ki [nM],Structure (SMILES)
1,3.5,"NC1CN(c2ccc3[nH]nc(S(=O)(=O)c4cccc5ccccc45)c3c2)C1 [Example 8, 1-[3-(1-naphthylsulfonyl)-1H-indazol-5-yl]azetidin-3-amine]"
2,131,"N[C@H]1CCN(c2ccc3[nH]nc(S(=O)(=O)c4ccccc4)c3c2)C1 [Example 10, (3S)-1-(3-phenylsulfonyl-1H-indazol-5-yl)pyrrolidin-3-amine]"
3,146,"N[C@@H]1CCN(c2ccc3[nH]nc(S(=O)(=O)c4ccccc4)c3c2)C1 [Example 11, (3R)-1-(3-phenylsulfonyl-1H-indazol-5-yl)pyrrolidin-3-amine]"
4,1.1,"CN(C)[C@@H]1CCN(c2ccc3[nH]nc(S(=O)(=O)c4cccc5ccccc45)c3c2)C1 [Example 12, (R)—N,N-dimethyl-1-(3-(naphthalen-1-ylsulfonyl)-1H-indazol-5-yl)pyrrolidin-3-amine]"
5,50,"CN(C)[C@H]1CCN(c2ccc3[nH]nc(S(=O)(=O)c4cccc5ccccc45)c3c2)C1 [Example 13, (S)—N,N-dimethyl-1-(3-(naphthalen-1-ylsulfonyl)-1H-indazol-5-yl)pyrrolidin-3-amine]"
6,1.1,"NC1CN(c2ccc3[nH]nc(S(=O)(=O)c4ccccc4)c3c2)C1 [Example 14, 1-(3-(phenylsulfonyl)-1H-indazol-5-yl)azetidin-3-amine]"
7,13.7,"CC(C)n1nc(S(=O)(=O)c2cccc3ccccc23)c2cc(N3CC[C@@H](N)C3)ccc21 [Example 16, (R)-1-(1-isopropyl-3-(naphthalen-1-ylsulfonyl)-1H-indazol-5-yl)pyrrolidin-3-amine]"

# Same assay, conditions: read-out: 5-HT6 Binding Ki
row,Structure (SMILES),Ki [nM]
1,"NC1CCN(c2ccc3[nH]nc(S(=O)(=O)c4cccc(Cl)c4)c3c2)CC1 [Example 5, 1-{3-[(3-chlorophenyl)sulfonyl]-1H-indazol-5-yl}piperidin-4-amine]",8
2,"Cn1nc(S(=O)(=O)c2cccc3ccccc23)c2cc(N3CC[C@@H](N)C3)ccc21 [Example 15, (3R)-1-[1-methyl-3-(naphthalen-1-ylsulfonyl)-1H-indazol-5-yl]pyrrolidin-3-amine]",21.1
3,"CC(C)Cn1nc(S(=O)(=O)c2cccc3ccccc23)c2cc(N3CC[C@@H](N)C3)ccc21 [Example 17, (R)-1-(1-isobutyl-3-(naphthalen-1-ylsulfonyl)-1H-indazol-5-yl)pyrrolidin-3-amine]",36.9
